Experimental data: patent US20070170056A1, “Microscale electrochemical cell and methods incorporating the cell” (priority 2006, published 2007)

type: physicochemical; settings: vs Pt reference electrode; mobile phase 50 mM LiClO4 in 50:50 water/ACN; porous graphitic working electrode
Experimental: A standard phenol mixture (100 μM) was dissolved in (50:50) water/ACN to form a sample solution. Mobile phase A consisted of 50 mM LiClO4 in water, while mobile phase B consisted of 50 mM LiClO4 in ACN; a 50:50 mix was used. The sample solution was introduced into an Eksigent ExpressLC system through a micro-injector (40 nL) and separated on an HPLC column (Eksigent Technologies, 300 μm i.d., 15 cm; 3 μm C18 particles). The eluent from the column was run sequentially through a low-dispersion UV detector (Eksigent Technologies) and then through an electrochemical detection system according to an embodiment of the present invention.
The electrochemical detection system had two independent cells in series, connected by a fused silica capillary.

| SMILES | E1/2 [mV] |
| --- | --- |
| Oc1ccccc1 [phenol] | 336 |
| Oc1ccccc1Cl [2-chlorophenol] | 139 |
| Cc1ccc(O)c(C)c1 [2,4-dimethylphenol] | 304 |
| Cc1cc(O)ccc1Cl [4-chloro-3-methylphenol] | 314 |
| Oc1ccc(Cl)cc1Cl [2,4-dichlorophenol] | 305 |
